Reference: patent US8673904B2, “Epoxide inhibitors of cysteine proteases” (The Board of Trustees of the Leland Stanford Junior …, priority 2006, dated 2014)
pIC50: −log10 of the molar value.

Assays:
CatB = biological target: T1, CatB (Rattus norvegicus, UniProt P00787); experiment: IC50 by competition with radiolabeled general cathepsin probe DCG-04 in rat liver lysate; type: biochemical; settings: 1 mg/ml rat liver lysate, inhibitor 20 minutes, then DCG-04 1 hour
T1 construct: from tissue; host or cells: rat liver lysate / homogenate
Protocol: (§1) Also included in the table for comparison are known compounds JPMOEt and JPMOH (also known as JPM-565). See Meara and Rich, J. Med. Chem. 39:3357-3366, 1996; Bogyo et al, Chem. Biol. 7:27-38, 2000; and Joyce et al., Cancer Cell 5:443-453, 2004. The table also lists cathepsin targets and measured IC50 values for specific compounds. To determine these values, 1 mg/ml of rat liver lysate was incubated with a series of concentrations of the inhibitor for 20 minutes. Then, 1 ul of a radiolabled general cathepsin probe, DCG-04, was added to the solutions and incubated for 1 hour. After fixing and drying the gel, the residual enzyme activity was measured using ImageJ software. The measurements were then transferred to GraphPad Prism 4 to calculate the IC50 values.

CatZ (Cathepsin Z) = biological target: T2, CatZ (Cathepsin Z) (Rattus norvegicus, UniProt Q9R1T3); experiment: as above; type: biochemical; settings: 1 mg/ml rat liver lysate, inhibitor 20 minutes, then DCG-04 1 hour
T2 construct: from tissue; host or cells: rat liver lysate
Protocol: as §1

CatH = biological target: T3, CatH (Rattus norvegicus, UniProt P00786); experiment: as above; type: biochemical; settings: 1 mg/ml rat liver lysate, inhibitor 20 minutes, then DCG-04 1 hour
T3 construct: from tissue; host or cells: rat liver lysate
T3 sequence (P00786 96-333): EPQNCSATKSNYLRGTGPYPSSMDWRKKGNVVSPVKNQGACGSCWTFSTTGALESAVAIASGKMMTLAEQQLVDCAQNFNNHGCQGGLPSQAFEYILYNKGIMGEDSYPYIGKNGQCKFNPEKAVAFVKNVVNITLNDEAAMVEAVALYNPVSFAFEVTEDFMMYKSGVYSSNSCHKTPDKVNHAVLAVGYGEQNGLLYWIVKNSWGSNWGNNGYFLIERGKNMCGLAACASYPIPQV
Protocol: as §1

CatC = biological target: T4, CatC (Rattus norvegicus, UniProt P80067); experiment: as above; type: biochemical; settings: 1 mg/ml rat liver lysate, inhibitor 20 minutes, then DCG-04 1 hour
T4 construct: from tissue; host or cells: rat liver lysate
T4 sequence (P80067 25-462): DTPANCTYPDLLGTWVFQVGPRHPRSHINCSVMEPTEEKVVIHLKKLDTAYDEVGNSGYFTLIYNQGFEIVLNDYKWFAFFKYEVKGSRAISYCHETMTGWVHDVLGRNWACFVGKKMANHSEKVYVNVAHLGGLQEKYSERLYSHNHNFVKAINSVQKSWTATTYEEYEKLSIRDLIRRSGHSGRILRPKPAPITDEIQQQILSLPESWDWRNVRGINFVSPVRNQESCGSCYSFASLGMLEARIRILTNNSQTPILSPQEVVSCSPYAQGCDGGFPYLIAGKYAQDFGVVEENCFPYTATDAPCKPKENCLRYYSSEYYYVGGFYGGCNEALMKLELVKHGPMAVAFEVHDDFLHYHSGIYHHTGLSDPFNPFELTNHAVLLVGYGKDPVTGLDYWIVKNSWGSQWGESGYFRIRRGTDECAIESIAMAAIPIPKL
Protocol: as §1

cathepsin B = biological target: T5, cathepsin B (Rattus norvegicus, UniProt P00787); experiment: Competition in rat liver homogenates, 125I-labeled JPM-OEt labeling; type: biochemical; settings: FIG. 2, rat liver homogenates
T5 construct: from tissue; host or cells: rat liver lysate / homogenate
Protocol: (§2) The library compounds all contained a tyrosine residue at the R3 position. They contained either a leucine residue (top and middle panels) or a 4-methylphenylalanine residue (bottom panel) at the A2 position. The amine at R1 is indicated above each panel, with numbering as defined in Table 1. Samples were analyzed by SDS-PAGE followed by autoradiography. Controls (C) are shown where DMSO was added in place of the inhibitor. The parent compounds JPM-OEt (Et) and JPM-565 (OH) are also included as positive controls. Note the loss of reactivity for all (2R,3R) compounds and the change in specificity of JPM analogs in which the (2R,3R) (middle panel—OH and Et) is used in place of the (2S,3S) (top panel—OH and Et) epoxides.
(§3) Joyce et al., Cancer Cell 5:443-453, 2004.
(§4) FIGS. 3 and 4 show additional competition assays with other compounds of the invention at various concentrations. The compounds were added to total rat liver extracts at the indicated concentrations, as described above, and the mixtures were subsequently treated with ^125I-labeled JPM-OEt to label proteins with residual activity. The in vivo pharmacokinetic properties, potency, and selectivity of some of these compounds are further described in Sadaghiani et al., Chem. Biol. 14:499-511, 2007, which is incorporated herein by reference in its entirety.

cathepsin targets = experiment: Cathepsin targets of the compounds (Table 4); type: biochemical, rat; settings: cathepsin target(s) inhibited; General = all cathepsins
Protocol: as §1

other cathepsin targets = experiment: Competition/profiling in total rat liver extracts, 125I-labeled JPM-OEt labeling; type: biochemical; settings: FIG. 2, at concentrations as high as 50 micromolar
Protocol: as §2, §3, §4

RIP-Tag cancer model = settings: Joyce et al., Cancer Cell 5:443-453, 2004; cited from earlier work

T1 sequence (P00787 80-333): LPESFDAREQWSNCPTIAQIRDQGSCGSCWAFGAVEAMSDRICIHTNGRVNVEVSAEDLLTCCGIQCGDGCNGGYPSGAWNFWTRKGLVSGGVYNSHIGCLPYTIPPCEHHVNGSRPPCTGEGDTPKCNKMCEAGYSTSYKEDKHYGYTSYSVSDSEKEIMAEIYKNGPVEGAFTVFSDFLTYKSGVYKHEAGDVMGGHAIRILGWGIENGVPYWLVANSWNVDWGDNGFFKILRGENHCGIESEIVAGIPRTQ
T2 sequence (Q9R1T3 64-306): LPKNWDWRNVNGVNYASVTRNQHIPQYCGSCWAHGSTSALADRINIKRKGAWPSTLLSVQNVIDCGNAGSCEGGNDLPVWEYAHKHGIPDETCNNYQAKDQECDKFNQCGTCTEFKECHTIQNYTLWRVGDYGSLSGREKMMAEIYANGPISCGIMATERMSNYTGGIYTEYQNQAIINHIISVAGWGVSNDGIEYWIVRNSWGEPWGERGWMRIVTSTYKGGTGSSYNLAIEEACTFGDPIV
T5 sequence (P00787 80-333): as the sequence (P00787 80-333) above

| SMILES | pIC50 (CatB) | pIC50 (CatZ (Cathepsin Z)) | pIC50 (CatH) | pIC50 (CatC) | potency for cathepsin B compared to parent compound JPM-565 (cathepsin B) | Target (cathepsin targets) | activity against other cathepsin targets (other cathepsin targets) | efficacy in the RIP-Tag cancer model (RIP-Tag cancer model) |
| --- | --- | --- | --- | --- | --- | --- | --- | --- |
| CC(C)C[C@H](NC(=O)C1OC1C(=O)NCCc1ccc(O)cc1)C(=O)N[C@@H](Cc1ccc(O)cc1)C(N)=O (single isomer, unassigned) [Compound 46] | 8.00 | < 5.00 | < 4.30 | < 4.30 | retain similar potency for cathepsin B compared to parent compound JPM-565 | Cat B | little or no activity against other cathepsin targets | – |
| Cc1ccc(C[C@H](NC(=O)[C@H]2OC2C(=O)NCC(=O)O)C(=O)N[C@@H](Cc2ccc(O)cc2)C(N)=O)cc1 (stereo partly shown) [Compound 16] | – | 7.00 | < 5.00 | < 5.00 | – | Cat Z^1 | – | – |
| CC(C)C[C@H](NC(=O)C1OC1C(=O)NCCc1ccc(O)cc1)C(=O)N[C@@H](Cc1ccc(O)cc1)C(N)=O (stereo partly shown) [Compound 25] | 7.70 | < 5.00 | 4.68 | 4.96 | – | Cat B | – | – |
| CC(C)C[C@H](NC(=O)C1OC1C(=O)NCCCO)C(=O)N[C@@H](Cc1ccc(O)cc1)C(N)=O (stereo partly shown) [Compound 31] | 8.00 | 5.96 | 5.26 | 4.96 | – | Cat B | – | – |
| CC(C)C[C@H](NC(=O)[C@H]1OC1C(=O)O)C(=O)N[C@@H](Cc1ccc(O)cc1)C(N)=O (stereo partly shown) [Compound 40] | 7.70 | 7.00 | 5.26 | 6.70 | – | General | – | – |
| CC(C)C[C@H](NC(=O)C1O[C@H]1C(=O)NCCCO)C(=O)N[C@@H](Cc1ccc(O)cc1)C(N)=O (stereo partly shown) [Compound 52] | 7.30 | 5.74 | < 4.30 | < 4.30 | retain similar potency for cathepsin B compared to parent compound JPM-565 | Cat B | little or no activity against other cathepsin targets | – |
| CC(C)C[C@H](NC(=O)C1OC1C(=O)O)C(=O)N[C@@H](Cc1ccc(O)cc1)C(N)=O (stereo partly shown) [Compound 60] | 6.40 | 7.00 | < 4.60 | < 4.60 | – | Cat B & Z | – | – |
| CC(C)C[C@H](NC(=O)[C@H]1O[C@@H]1C(=O)NCCc1ccc(O)cc1)C(=O)NCCc1ccccn1 [Compound 63] | 6.51 | < 5.00 | < 5.00 | < 5.00 | – | Cat B & Z | – | – |
| CC(C)C[C@H](NC(=O)[C@H]1O[C@@H]1C(=O)NCCc1ccc(O)cc1)C(=O)NCc1cccc2ccccc12 [Compound 66] | 6.49 | 6.10 | 5.21 | 5.24 | – | General | – | – |
| NC(=O)[C@H](Cc1ccc(O)cc1)NC(=O)[C@H](CC1CCCCC1)NC(=O)C1OC1C(=O)O (stereo partly shown) [Compound 74] | 5.71 | 6.52 | < 4.60 | < 4.60 | – | Cat B & Z | – | – |
| CCC[C@H](NC(=O)C1O[C@H]1C(=O)O)C(=O)N[C@@H](Cc1ccc(O)cc1)C(N)=O (stereo partly shown) [Compound 75] | 6.57 | 6.70 | < 4.60 | < 4.60 | – | Cat B & Z | – | – |
| Cc1ccc(C[C@H](NC(=O)C2O[C@H]2C(=O)O)C(=O)N[C@@H](Cc2ccc(O)cc2)C(N)=O)cc1 (stereo partly shown) [Compound 76] | 5.17 | 6.70 | < 4.60 | < 4.60 | – | Cat Z | – | – |
| CCC[C@H](NC(=O)C1O[C@@H]1C(=O)O)C(=O)N[C@@H](Cc1ccc(O)cc1)C(N)=O (stereo partly shown) [Compound 77] | 7.52 | 7.00 | 6.13 | 6.35 | – | General | – | – |
| CCC[C@H](NC(=O)C1O[C@H]1C(=O)NCC(=O)O)C(=O)N[C@@H](Cc1ccc(O)cc1)C(N)=O (stereo partly shown) [Compound 78] | 6.55 | 6.00 | < 5.00 | < 5.00 | – | Cat B | – | – |
| CCC[C@H](NC(=O)C1O[C@@H]1C(=O)NCC(=O)O)C(=O)N[C@@H](Cc1ccc(O)cc1)C(N)=O (stereo partly shown) [Compound 79] | 6.72 | 5.89 | 5.23 | 4.71 | – | Cat B | – | – |
| Cc1ccc(C[C@H](NC(=O)C2O[C@H]2C(=O)NCC(=O)O)C(=O)N[C@@H](Cc2ccc(O)cc2)C(N)=O)cc1 (stereo partly shown) [Compound 80] | < 5.00 | 6.10 | < 5.00 | < 5.00 | – | Cat B & Z | – | – |
| CCOC(=O)[C@H]1O[C@@H]1C(=O)N[C@@H](CC(C)C)C(=O)NCCc1ccc(O)cc1 [JPMOEt, reference compound] | 7.40 | 6.70 | 5.33 | 5.05 | – | General | – | – |
| CC(C)C[C@H](NC(=O)[C@H]1O[C@@H]1C(=O)O)C(=O)NCCc1ccc(O)cc1 [JPMOH, reference compound] | 6.40 | 7.00 | 6.24 | 6.00 | – | General | – | shown to have efficacy in the RIP-Tag cancer model |
